From patent US4701455A, “Biopterin analogs” (Burroughs Wellcome Co., priority 1983, dated 1987)

Legend:
Type in all cases: biochemical
[1] = test system: Dihydropteridine reductase; assay: Dihydropteridine reductase assay; details: quinonoid dihydro form; relative to tetrahydrobiopterin form = 100
Experimental: Dihydropteridine reductase was assayed by the method of Craine, et al., (J. Biol. Chem., 247, 6082 (1972)).

Tryptophan hydroxylase = molecular target: T1, Tryptophan hydroxylase (Rattus norvegicus, UniProt Q8CGU9); assay: Tryptophan hydroxylase cofactor assay; details: relative to tetrahydrobiopterin = 100
T1 construct: crude 30,000×g supernatant; from tissue
T1 sequence (Q8CGU9 1-485): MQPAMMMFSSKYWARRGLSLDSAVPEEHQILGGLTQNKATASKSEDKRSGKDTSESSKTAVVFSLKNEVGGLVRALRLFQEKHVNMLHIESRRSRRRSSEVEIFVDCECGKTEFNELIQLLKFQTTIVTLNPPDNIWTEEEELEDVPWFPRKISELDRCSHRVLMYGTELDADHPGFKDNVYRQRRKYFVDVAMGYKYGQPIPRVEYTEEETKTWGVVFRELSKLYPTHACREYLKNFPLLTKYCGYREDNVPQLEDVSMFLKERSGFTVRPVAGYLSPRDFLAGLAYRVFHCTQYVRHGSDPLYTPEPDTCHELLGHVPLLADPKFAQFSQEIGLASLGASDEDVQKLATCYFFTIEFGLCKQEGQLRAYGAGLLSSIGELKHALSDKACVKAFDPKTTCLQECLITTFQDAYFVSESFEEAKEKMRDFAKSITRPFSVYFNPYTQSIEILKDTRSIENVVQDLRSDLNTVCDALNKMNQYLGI
Experimental: Trytophan hydroxylase was assayed according to a modification of the method of Renson J., et al (Biochem. Biophys. Acta 25: 504 (1966)). The preparation of tryptophan hydroxylase was a crude 30,000×g supernatant which had been desalted on a Sephadex G-25 (Trade Name) column (Boadle-Biker, M.C., Biochem Pharmacol. 28: 2129 (1979).

[2] = molecular target: T2, Phenylalanine hydroxylase (Rattus norvegicus, UniProt P04176); assay: Phenylalanine hydroxylase cofactor assay; details: rat liver enzyme; relative to tetrahydrobiopterin = 100
T2 construct: Phenylalanine hydroxylase was prepared from rat liver; from tissue; host or cells: rat liver
T2 sequence (P04176 1-453): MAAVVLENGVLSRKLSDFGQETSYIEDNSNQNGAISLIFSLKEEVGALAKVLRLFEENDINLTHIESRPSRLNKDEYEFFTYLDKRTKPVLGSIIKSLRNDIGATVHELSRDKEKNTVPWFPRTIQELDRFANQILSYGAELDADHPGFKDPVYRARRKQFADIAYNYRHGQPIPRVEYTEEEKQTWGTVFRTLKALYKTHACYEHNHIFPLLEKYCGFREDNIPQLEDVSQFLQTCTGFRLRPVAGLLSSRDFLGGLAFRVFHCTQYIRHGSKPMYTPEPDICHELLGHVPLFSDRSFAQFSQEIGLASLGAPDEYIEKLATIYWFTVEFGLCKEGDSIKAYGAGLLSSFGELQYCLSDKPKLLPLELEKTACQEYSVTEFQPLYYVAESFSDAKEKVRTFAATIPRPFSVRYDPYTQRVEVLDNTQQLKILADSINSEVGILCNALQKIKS
Experimental: Phenylalanine hydroxylase was measured as described in Shiman, R. et al., (J. Biol. Chem. 254: 11300 (1979)) except that the product of the reaction (tyrosine) was measured fluorometrically using the method of Waalkes, T. P. and Udenfriend, S. (J. Lab. Clin. Med. 50: 733 (1957). Phenylalanine hydroxylase was prepared from rat liver using hydrophobic chromatography (Shiman, R. et al. (J. Biol. Chem. 254: 11,300 (1979)). The specific activity of the enzyme, using BH4 as the co-factor, was 1.0 μmol/mg protein per minute at 37°.

Tyrosine hydroxylase = Tyrosine hydroxylase (Homo sapiens, UniProt P07101); assay: Tyrosine hydroxylase cofactor assay; details: relative to tetrahydrobiopterin = 100
Tyrosine hydroxylase, sequence (P07101 whole entry): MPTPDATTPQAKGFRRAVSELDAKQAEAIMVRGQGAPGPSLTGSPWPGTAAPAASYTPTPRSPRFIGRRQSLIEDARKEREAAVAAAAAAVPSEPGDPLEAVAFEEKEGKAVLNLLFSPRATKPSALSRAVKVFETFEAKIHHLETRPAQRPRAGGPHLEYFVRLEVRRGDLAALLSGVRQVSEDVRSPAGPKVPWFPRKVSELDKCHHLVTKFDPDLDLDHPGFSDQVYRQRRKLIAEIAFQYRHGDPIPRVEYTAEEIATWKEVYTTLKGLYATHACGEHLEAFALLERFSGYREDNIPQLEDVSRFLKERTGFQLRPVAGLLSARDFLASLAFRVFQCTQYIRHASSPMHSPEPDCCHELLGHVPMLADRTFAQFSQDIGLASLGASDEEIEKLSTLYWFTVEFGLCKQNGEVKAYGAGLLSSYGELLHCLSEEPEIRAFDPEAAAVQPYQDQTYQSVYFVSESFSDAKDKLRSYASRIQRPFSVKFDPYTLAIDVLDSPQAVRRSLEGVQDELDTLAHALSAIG
Experimental: Tyrosine hydroxylate was partially purified through a 25-45% ammonium sulfate fraction. […] The enzyme was assayed by a modification of the method of Nagatsu, T., Levitt, M., and Udenfriend, S. (Anal. Biochem. 9, 122, (1964)) where the Dowex chromatography step was replaced by a charcoal extraction.

bovine liver DHFR = molecular target: T3, bovine liver DHFR (Bos taurus, UniProt P00376); assay: Dihydrofolate reductase assay; details: for Dihydrofolate reductase V: 7,8-dihydro form, relative to 7,8-dihydrobiopterin = 100, bovine liver DHFR
T3 construct: bovine liver DHFR; from tissue; host or cells: bovine liver
T3 sequence (P00376 1-187): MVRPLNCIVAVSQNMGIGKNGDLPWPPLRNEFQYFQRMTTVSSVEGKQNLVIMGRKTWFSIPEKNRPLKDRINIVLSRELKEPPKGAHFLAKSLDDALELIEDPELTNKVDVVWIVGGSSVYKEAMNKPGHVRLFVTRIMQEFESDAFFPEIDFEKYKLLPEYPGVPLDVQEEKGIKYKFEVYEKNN
Experimental: These assays were carried out on the 7,8-dihydropterin analogs of the compounds of formula I which was tetrahydropterins. The 7,8-dihydropterinswere obtained commercially (in the case of dihydrobiopterin) or synthesized from the corresponding compound of formula I. Synthesis of 7,8-dihydropterins involved the combination of 0.27 μmole of a compound of formula I, 20 μg of horseradish peroxidase, 0.6 μmole of hydrogen peroxide in 0.1 ml of 0.5M potassium phosphate buffer, pH 7.5. After 3 min at room temperature, 10 μg of bovine liver catalase was added. The production of the 7,8-dihydropterin was verified by U.V. spectroscopy.
The assay was carried out with bovine liver DHFR using a modification of the method of Bailey and Ayling (J. Biol. Chem., 253, 1598 (1978)) where the desired dihydropterin replaced dihydrobiopterin, and the HPLC system used consisted of an anaerobic 0.1M acetic acid (with or without 10% acetonitrite) solvent on a 25 cm×4.6 mm Dupont TMS-Zorbax column. In our hands, dihydrobiopterin is reduced at a rate 2.5% that of the natural substrate dihydrofolate.

SMILES	Dihydropteridine reductase Vmax [1] [%]	Tryptophan hydroxylase Vmax (Tryptophan hydroxylase) [%]	Phenylalanine hydroxylase Vmax [2] [%]	Tyrosine hydroxylase Vmax (Tyrosine hydroxylase) [%]	Dihydrofolate reductase V (bovine liver DHFR) [%]	Rate of reduction by DHFR relative to dihydrofolate (bovine liver DHFR; relative to natural substrate dihydrofolate) [%]
C[C@H](O)[C@H](O)[C@H]1CNc2nc(N)[nH]c(=O)c2N1 [Tetrahydrobiopterin]	100	100	100	100	100	–
C[C@H](O)[C@H](O)C1=Nc2c(nc(N)[nH]c2=O)NC1 [7,8-Dihydrobiopterin]	–	–	–	–	–	2.5
COCC1CNc2nc(N)[nH]c(=O)c2N1 (racemic) [6-Methoxymethyl-tetrahydropterin, (+-)-2-Amino-5,6,7,8-tetrahydro-6-methoxymethyl-4(3H)-pteridinone]	295	54	79	124	800	–
